4 molecules from patent US11224565B2, “N-acyldipeptide derivatives and their uses” (NeoStrata Company, Inc., priority 2011, dated 2022) can be followed below.

Common to all, as to assay type: in vivo, human
One assay concerns Nerve disorders. Put plainly: Summary of test results in volunteer subjects: nerve disorders. The note with it: efficacy grade. From the text:
(§1) In one embodiment, a composition for topical application to test its therapeutic effect was formulated by dissolving a bioactive dipeptide derivative of the present invention in a solution prepared from 40 parts water, 40 parts ethanol and 20 parts propylene glycol by volume (WEP442). In another embodiment, a composition was formulated by dissolving a bioactive dipeptide derivative of the present invention in a non-aqueous solution prepared from 80 parts ethanol and 20 parts propylene glycol by volume (EP82). In yet another embodiment, a composition was formulated first by dissolving a bioactive dipeptide derivative of the present invention in a solution prepared from 80 parts water and 20 parts propylene glycol by volume (WP82), and the solution thus prepared was mixed with an oil-in-water emulsion or cream. In another embodiment, the volunteer subject topically applied the test compositions containing N-acyldipeptide derivatives of the present invention on involved skin or lesions once or twice daily for several weeks or until the involved lesions completely cleared and clinically changed to normal skin. As a control study, the subject also topically applied a vehicle control composition on the involved skin or lesions twice daily for the same period. In yet another embodiment, the volunteer subject topically applied once or twice daily the test compositions containing N-acyldipeptide derivatives of the present invention on the skin site above arthritic joints or painful muscles to provide therapeutic effects for the systemic disorders via topical administration. Some test results are summarized as follows. ND: Nerve disorders

Assay [1] relates to age spots including lentigines and keratosis. Put plainly: Topical treatment of age spots on face. The following applies: twice daily, after 4 weeks; 1% (w/v) N-Ac-L-Cys-L-Tyr-NH2 in WEP442 pH 6.4 left side, 0.4% (w/v) N-Ac-L-Cys-L-Cys-NH2 in WEP442 right side. From the text: A subject had multiple age spots including lentigines and keratosis on their face. Topical treatments with conventional medications including hydroquinone with or without glycolic acid had been unsuccessful. The subject topically applied twice daily to the left side of their face 1% (w/v) N—Ac-L-Cys-L-Tyr-NH2 in WEP442, pH 6.4 (Example 5), and to the right side of their face 0.4% (w/v) N—Ac-L-Cys-L-Cys-NH2 in WEP442 (Example 5) for several months. […] Continued topical applications of the formulations should improve or eradicate lentigines and keratosis of the face.

In a further assay the test system is Disturbed keratinization. Put plainly: Summary of test results in volunteer subjects: disturbed keratinization. The following applies: efficacy grade.
Excerpt: as §1, with “DK: Disturbed keratinization” for “ND: Nerve disorders”

The subject of assay [2] is Aging related changes of skin, nail and hair. The experiment in a line: Summary of test results in volunteer subjects: aging related changes. The following applies: efficacy grade.
Excerpt: as §1, with “AG: Aging related changes of skin, nail and hair” for “ND: Nerve disorders”

Assay [3] has as its system Deranged immune disorders and inflammation. Put plainly: Summary of test results in volunteer subjects: deranged immune disorders and inflammation. The note with it: efficacy grade. From the text: In one embodiment, a composition for topical application to test its therapeutic effect was formulated by dissolving a bioactive dipeptide derivative of the present invention in a solution prepared from 40 parts water, 40 parts ethanol and 20 parts propylene glycol by volume (WEP442). In another embodiment, a composition was formulated by dissolving a bioactive dipeptide derivative of the present invention in a non-aqueous solution prepared from 80 parts ethanol and 20 parts propylene glycol by volume (EP82). In yet another embodiment, a composition was formulated first by dissolving a bioactive dipeptide derivative of the present invention in a solution prepared from 80 parts water and 20 parts propylene glycol by volume (WP82), and the solution thus prepared was mixed with an oil-in-water emulsion or cream. In another embodiment, the volunteer subject topically applied the test compositions containing N-acyldipeptide derivatives of the present invention on involved skin or lesions once or twice daily for several weeks or until the involved lesions completely cleared and clinically changed to normal skin. As a control study, the subject also topically applied a vehicle control composition on the involved skin or lesions twice daily for the same period. In yet another embodiment, the volunteer subject topically applied once or twice daily the test compositions containing N-acyldipeptide derivatives of the present invention on the skin site above arthritic joints or painful muscles to provide therapeutic effects for the systemic disorders via topical administration. Some test results are summarized as follows. DI: Deranged immune disorders and inflammation

For assay [4], the system named is inflammation, dermatitis, or eczema lesions. The experiment in a line: Topical application to chronic inflammation, dermatitis, eczema or allergic skin lesions, clinical evaluation. From the text: (§2) In another embodiment, the volunteer subject topically applied the test compositions containing N-acyldipeptide derivatives of the present invention on involved skin or lesions once or twice daily for several weeks or until the involved lesions completely cleared and clinically changed to normal skin. As a control study, the subject also topically applied a vehicle control composition on the involved skin or lesions twice daily for the same period.

In a further assay the test system is insect bites. The experiment in a line: Topical application to insect bite lesions (itch, erythema, inflammation). The following applies: 10% (w/w) cream on insect bites of left arm. On the procedure: A subject, having intensive itch and erythema on their left arm from insect bites, topically applied 10% (w/w) N—Ac-L-Leu-Gly-NH2 cream as formulated in Example 3 on the involved lesions.
A subject had multiple lesions of insect bites (mosquitoes) over the face and arms with itch and inflammatory lesions of more than 1 cm in size. For testing purposes, the subject divided the lesions into three groups: the first group was treated with vehicle control, the second and third groups were treated with active compositions. The subject topically applied twice daily 0.5% (w/v) N—Ac-L-Val-L-Ala-NH2 solution in WEP442, pH 5.9 on the lesions of the second group, and 0.5% (w/v) N—Ac-L-Tyr-L-Tyr-NH2 solution in WEP442, pH 6.7 (Example 5) on the lesions of the third group. […] The lesions in the second and third groups also started to improve over the next few days. At the end of three days, while there was no discernible change in the lesions treated with vehicle control in the first group, the lesions in the second and third groups had 90-100% improvement with nearly complete disappearance of inflammatory lesions.
A subject had multiple lesions of chigger bites (grass mites) over the legs with intensive itch and red inflammatory lesions. The subject topically applied twice daily 0.5% (w/v) N—Ac-L-Val-L-Ala-NH2 solution in WEP442, pH 6.7 (Example 5) on the lesions. […] The lesions on the legs had 100% improvement as judged by clinical evaluation.
as §2

The next assay concerns forearm skin. The experiment in a line: Skin thickness of forearm by micrometer calipers after topical application. The following applies: for increase in skin thickness of treated left forearm: 2% (w/v) in WEP442 topically twice daily, vehicle forearm no change. On the procedure:
In one of the studies related to skin changes associated with aging, skin thickness was measured by micrometer calipers as follows. The skin was grasped with a 2×6 cm metal hinge; the internal faces of which were coated with emery cloth to prevent slippage, and manually squeezed to threshold subject discomfort. Combined thickness of two whole-skin layers including thickness of the two hinge leaves was measured with micrometer calipers. Thickness of the two hinge leaves was subtracted to determine the actual thickness of two whole-skin layers. Triplicate measurements on treated sites were done and an average number was used for calculation of the skin thickness. In other studies, test sites of skin 17 mm in diameter were used, the circular sites were marked with permanent ink. Intervening control sites were also 17 mm in diameter. Thickness of skin of all sites was measured directly by means of an electronic digital caliper. In this instance the jaws of the caliper were opened to 17 mm, applied with pressure to the skin sites and then closed to firm tightness. Thickness of skin was then read off the screen of the calipers. Measurements of all sites were made in triplicates.

Structures are written as SMILES. Peptide text beside a SMILES is read from it.

For `CC(=O)N[C@@H](CS)C(=O)N[C@@H](Cc1ccc(O)cc1)C(N)=O` [N-Ac-L-Cys-L-Tyr-NH2] (Ac-Cys-Tyr-NH2), the ND in the assay on Nerve disorders is reported as 3+ (3+: 75% Efficacy). Further, the “age spot lesions of face” value in assay [1] is “started to improve noticeably”. For the same molecule, in the assay with Disturbed keratinization, the DK is 2+ (2+: 50% Efficacy). The AG in assay [2] is 2+ (2+: 50% Efficacy). Further, the DI in assay [3] is 2+ (2+: 50% Efficacy).

In the case of `CC(=O)N[C@@H](CS)C(=O)N[C@@H](CS)C(N)=O` [N-Ac-L-Cys-L-Cys-NH2] (Ac-Cys-Cys-NH2), the ND in the assay with Nerve disorders was 2+ (2+: 50% Efficacy). Besides, the “age spot lesions of face” value in assay [1] is “started to improve noticeably”. Also, in the assay on Disturbed keratinization, the DK is 2+ (2+: 50% Efficacy). Further, in assay [2], the AG is reported as 3+ (3+: 75% Efficacy). For the same molecule, the DI in assay [3] is 2+ (2+: 50% Efficacy).

As to `CC(=O)N[C@@H](CC(C)C)C(=O)NCC(N)=O` [N-Ac-L-Leu-Gly-NH2] (Ac-Leu-Gly-NH2), the “improvement as judged by clinical evaluation” value is 95% in assay [4] (6% (w/w) oil-in-water emulsion twice daily, chronic eczema large body areas, end of 10 days); 90-100% in assay [4] (7% (w/w) oil-in-water emulsion twice daily, chronic eczema, end of 10 days); 50% in assay [4] (10% (w/w) cream twice daily, chronic eczema right leg, end of one week). Also, the “itch after topical application” value is listed as “stopped within a few minutes” in assay [4] (6% (w/w) oil-in-water emulsion twice daily, chronic eczema large body areas, person); “stopped within a few minutes” in assay [4] (7% (w/w) oil-in-water emulsion twice daily, chronic eczema, person); “stopped within a few minutes” in assay [4] (10% (w/w) cream twice daily, chronic eczema right leg, person); “stopped within a few minutes” in the assay with insect bites. Moreover, in the assay with Nerve disorders, the ND was 4+ (4+: 95-100% Efficacy). Further, the DK with Disturbed keratinization is given as 3+ (3+: 75% Efficacy). In assay [2], the AG is reported as 3+ (3+: 75% Efficacy). Also, the “time the pruritus did not return” value with insect bites amounted to 6 h. Moreover, in the assay on insect bites (after 12 hours), the erythema and inflammation entry is reported as “improved”. Also, the DI in assay [3] is 4+ (4+: 95-100% Efficacy).

For the molecule `CC(=O)N[C@@H](Cc1ccc(O)cc1)C(=O)N[C@@H](Cc1ccc(O)cc1)C(=O)NN` [N-Ac-L-Tyr-L-Tyr-NHNH2] (HELM PEPTIDE1{[ac].Y.Y.[NN[*:1]]}$$$$V2.0), the “improvement as judged by clinical evaluation” value in assay [4] (chronic eczema, twice daily, two weeks, 0.6% (w/w) N-Ac-L-Tyr-L-Tyr-NHNH2 cream on one set of lesions, 0.7% (w/w) N-Ac-L-Tyr-L-Tyr-NHNHAc cream on another) is given as 75%. Also, the “itch after topical application” value in assay [4] (chronic eczema, twice daily, 0.6% (w/w) N-Ac-L-Tyr-L-Tyr-NHNH2 cream on one set of lesions, 0.7% (w/w) N-Ac-L-Tyr-L-Tyr-NHNHAc cream on another) is reported as “stopped a few minutes after”. For the same molecule, in the assay with Nerve disorders, the ND is 2+ (2+: 50% Efficacy). Moreover, in the assay with Disturbed keratinization, the DK is recorded as 3+ (3+: 75% Efficacy). Further, in assay [2], the AG is given as 3+ (3+: 75% Efficacy). Besides, the “appearance of treated left forearm at end of treatment” value with forearm skin (1-3% (w/v) in WEP442 topically twice daily for 1-6 weeks as in the example, vehicle forearm still loose, thin and wrinkled) was “more firm, smooth, plump, and less wrinkled when lifted”. The “increase in skin thickness of treated left forearm” value in the assay with forearm skin (after one week) worked out at 15%; in the assay with forearm skin (after three weeks), 32%; with forearm skin (after two weeks) it was 14%. The DI in assay [3] is 2+ (2+: 50% Efficacy).
